Source: article PMC9807592, “New thioxothiazolidinyl-acetamides derivatives as potent urease inhibitors: design, synthesis, in vitro inhibition, and molecular dynamic simulation” (Scientific Reports, 2023)
≈ marks a conversion by molar mass, not a printed value. Read-outs that look alike come from different tables or passages of the source.

Experiments:
C. albicans ATCC 10261 = assay: Antimicrobial activity, broth microdilution (CLSI); type: cell-based; settings: Candida albicans, ATCC10261
Protocol: The antimicrobial activity of designed compounds was investigated using broth microdilution.
Briefly, twofold serial dilutions of the compounds were prepared in Mueller–Hinton Broth (MHB, HiMedia) for bacterial strains and RPMI-1640 (Sigma-Aldrich) for yeast strain (Ranging 1–512 µg/ml). Then, 100 μL of each dilution was transferred into the well of a microtiter plate and inoculated with 100 μL of cell suspension with a final density of 1–5 × 10^3 CFU/ml for yeasts and 1–1.5 × 10^6 cells/ml for bacteria. Plates were incubated at proper temperature overnight, and the minimum inhibitory concentration (MIC) of compounds was determined as the lowest concentration that prevented visible growth of tested microorganisms compared with the growth in the control wells (wells without tested compounds). Moreover, the minimum bactericidal/fungicidal concentration (MBC/MFC) of compounds was determined by transferring the 10 µl of clear wells into the agar media. Standard antibacterial and antifungal agents (Ciprofloxacin and Fluconazole) were evaluated. All experiments were performed in duplicate[30],[31].

urease [1] = target: T1, urease (Canavalia ensiformis, UniProt P07374); assay: biochemical; type: biochemical
Protocol: The assay was performed exactly according to our previous report. Briefly, 850 μL of urea and 15 μL urease (0.135 units dissolved in PBS, pH 7.4) were added to 100 μL of the synthesized derivatives at different concentrations. After 30 min, to 100 μL of the incubated solution, 500 μL solution I (5.0 g phenol and 25.0 mg sodium nitroprusside in 500 mL water) was added followed by the addition of 500 μL of solution II (2.5 g sodium hydroxide, 4.2 mL sodium hypochlorite, and 5% chlorine in 500 mL water) which was further incubated at 37 °C for 30 min. The absorbance was determined by measuring indophenols at 625 nm. Thiourea was used as the standard inhibitor for urease. The IC50 values for all synthesized compounds were calculated using GraphPad Prism software (GraphPad Software, Inc., San Diego, CA)[20].

[2] = In vitro cytotoxic evaluation (MTT assay); type: cell-based; settings: human, MOLT-4 cells
Protocol: MOLT-4 (human acute lymphoblastic leukemia) cells were cultures in RPMI-1640 medium supplemented with 10% heat-inactivated fetal bovine serum. Cell viability was measured by the MTT assay. MOLT-4 cells were seeded into 96-well micro-culture plates. After 24 h, the culture medium was replaced with a medium containing different concentrations of newly synthesized derivatives. Control wells were supplemented with the same volume of growth medium not containing any drugs. Cells were then incubated at 37 °C for 72 h. At the end of the exposure time, the medium was removed and MTT solution of 0.5 mg/ml was added to each well. The plates were incubated at 37 °C for 4 h, after which DMSO was added to each well to solubilize the formed formazan crystals, and the absorbance of each well was read with a microplate reader at 570 nm.

E. coli ATCC 25922 = assay: Antimicrobial activity, broth microdilution (CLSI); type: cell-based; settings: Escherichia coli, ATCC25922, read-out: MIC
Protocol: (§1) Then, 100 μL of each dilution was transferred into the well of a microtiter plate and inoculated with 100 μL of cell suspension with a final density of 1–5 × 10^3 CFU/ml for yeasts and 1–1.5 × 10^6 cells/ml for bacteria. Plates were incubated at proper temperature overnight, and the minimum inhibitory concentration (MIC) of compounds was determined as the lowest concentration that prevented visible growth of tested microorganisms compared with the growth in the control wells (wells without tested compounds). […] All experiments were performed in duplicate[30],[31].

[3] = test system: clinical isolate of P. vulgaris; assay: Antimicrobial activity, broth microdilution (CLSI); type: cell-based; settings: Proteus vulgaris
Protocol: as §1

S. aureus ATCC 25923 = assay: Antimicrobial activity, broth microdilution (CLSI); type: cell-based; settings: Staphylococcus aureus, ATCC25923
Protocol: as §1

[4] = test system: urease-positive clinical isolate of P. vulgaris; assay: Urease inhibitory activity against P. vulgaris (Christensen's urea medium, 560 nm); type: cell-based; settings: Proteus vulgaris; for IC50: 24 h at 37 °C, read at 560 nm
Protocol: To assess the inhibition of urease activity by synthetic compounds, Christensen’s urea.
medium containing urea and phenol red (pH indicator) was used for the preparation of two-fold serial dilutions of compounds in 96-well microtiter plates. Cell suspension of a urease-positive clinical isolate of P. vulgaris was prepared in a urea medium and added to each well. The turbidity of bacterial suspension was adjusted to 0.5 McFarland using a spectrophotometer, and also, the density of inoculated suspension was 1 × 10^6 CFU/ml. The concentrations of compounds were in the range of 1–512 µg/ml.
Inoculated media without adding any compound was considered a positive control, while uninoculated media were used as a negative control (blank). The anti-urease activity was assessed spectroscopically at 560 nm after 24 h incubation at 37 °C[14].

urease [5] = settings: read-out: IC50, urease inhibition, cited from earlier work
urease [6] = target: T1, urease; assay: Enzyme kinetic study of urease inhibition (Lineweaver–Burk); type: biochemical
Protocol: A Lineweaver–Burk plot was generated to identify the type of inhibition, and the Michaelis–Menten constant (Km) value was determined from the plot between the reciprocal of the substrate concentration (1/[S]) and reciprocal of enzyme rate (1/V) over various inhibitor concentrations. The experimental inhibitor constant (Ki) value was constructed by secondary plots of the inhibitor concentration [I] versus Km.

[7] = mean ± SEM, at least three experiments, read-out: IC50 (μM), urease inhibitory activity

T1 sequence (P07374 whole entry, looked up): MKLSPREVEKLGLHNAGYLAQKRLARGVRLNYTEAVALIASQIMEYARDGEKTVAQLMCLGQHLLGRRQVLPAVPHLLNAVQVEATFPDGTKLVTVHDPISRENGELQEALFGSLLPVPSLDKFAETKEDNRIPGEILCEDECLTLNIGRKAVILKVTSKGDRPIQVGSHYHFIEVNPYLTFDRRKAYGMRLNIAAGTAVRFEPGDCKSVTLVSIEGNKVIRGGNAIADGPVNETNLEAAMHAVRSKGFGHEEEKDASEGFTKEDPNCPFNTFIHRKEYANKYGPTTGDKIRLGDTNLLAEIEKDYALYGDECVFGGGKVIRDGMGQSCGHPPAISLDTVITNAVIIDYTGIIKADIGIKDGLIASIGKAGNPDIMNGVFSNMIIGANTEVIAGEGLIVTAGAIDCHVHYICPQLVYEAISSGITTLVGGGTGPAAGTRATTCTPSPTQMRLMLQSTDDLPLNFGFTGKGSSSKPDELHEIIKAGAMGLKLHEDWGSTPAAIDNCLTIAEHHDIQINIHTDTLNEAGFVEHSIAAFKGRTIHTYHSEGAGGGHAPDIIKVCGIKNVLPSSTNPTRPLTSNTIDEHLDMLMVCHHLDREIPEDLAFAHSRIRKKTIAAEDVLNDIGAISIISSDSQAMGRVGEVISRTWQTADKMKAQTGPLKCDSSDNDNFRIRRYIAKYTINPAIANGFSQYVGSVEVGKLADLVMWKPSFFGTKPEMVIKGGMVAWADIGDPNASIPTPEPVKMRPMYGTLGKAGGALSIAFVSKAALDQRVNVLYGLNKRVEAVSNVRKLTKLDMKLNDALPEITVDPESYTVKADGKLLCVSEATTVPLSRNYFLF

O=C(CC1SC(=S)N(Cc2ccccc2)C1=O)NCc1ccccc1 (stereo not shown) [Compound 6a, N-benzyl-2-(3-benzyl-4-oxo-2-thioxothiazolidin-5-yl)acetamide]
MIC (C. albicans ATCC 10261): > 512 mg/L
IC50 (urease [1]): 2.22 ± 0.36 µM
viability at 72 h, 100 µM [2]: 95.5 ± 2.7%
melting point: 168 to 170 °C
MIC (E. coli ATCC 25922): > 512 mg/L
MIC [3]: > 512 mg/L
MIC (S. aureus ATCC 25923): > 512 mg/L

CCCCN1C(=O)C(CC(=O)NCc2ccc(C)cc2)SC1=S (stereo not shown) [Compound 6j, 2-(3-butyl-4-oxo-2-thioxothiazolidin-5-yl)-N-(4-methylbenzyl)acetamide]
IC50 (urease [1]): 5.66 ± 0.79 µM
viability at 72 h, 100 µM [2]: 97.7 ± 4.6%
melting point: 174 to 176 °C

OC(Cn1cncn1)(Cn1cncn1)c1ccc(F)cc1F [Fluconazole, reference compound]
MIC (C. albicans ATCC 10261): 4 mg/L (≈ 13.1 µM)

NC(=O)NO [Hydroxyurea, reference compound]
IC50 (urease [1]; mean ± SEM, at least three experiments, listed as hydroxyurea, read-out: IC50 (μM), urease inhibitory activity): 100 µM
IC50 (urease [1]; [7]): 100 ± 2.5 µM

CC(C)CNC(=O)CC1SC(=S)N(Cc2ccccc2)C1=O (stereo not shown) [Compound 6f, 2-(3-benzyl-4-oxo-2-thioxothiazolidin-5-yl)-N-isobutylacetamide]
MIC (C. albicans ATCC 10261): > 512 mg/L
IC50 (urease [1]): 1.59 ± 0.47 µM
viability at 72 h, 100 µM [2]: 91.9 ± 1.3%
melting point: 164 to 166 °C
IC50 [4]: 32.4 ± 5.26 mg/L (≈ 96.2 µM)
MIC (E. coli ATCC 25922): > 512 mg/L
MIC [3]: > 512 mg/L
MIC (S. aureus ATCC 25923): > 512 mg/L

NC(N)=S [Thiourea, reference compound]
IC50 (urease [1]; [7]): 23.6 ± 0.84 µM

O=C(O)[C@@H]1CSCN1 [A]
IC50 (urease [5]; thiazolidine carboxylic acid lead): 3.03 ± 0.098 µM

CC(C)CN1C(=O)C(CC(=O)NCc2ccccc2)SC1=S (stereo not shown) [Compound 6l, N-benzyl-2-(3-isobutyl-4-oxo-2-thioxothiazolidin-5-yl)acetamide]
MIC (C. albicans ATCC 10261): > 512 mg/L
IC50 (urease [1]): 4.38 ± 0.61 µM
viability at 72 h, 100 µM [2]: 93.6 ± 4.5%
melting point: 169 to 171 °C
MIC (E. coli ATCC 25922): > 512 mg/L
MIC [3]: > 512 mg/L
MIC (S. aureus ATCC 25923): > 512 mg/L

COc1cc(/C=N\N=C2\NC(=O)CS2)c(OC)cc1Br [C]
IC50 (urease [5]; 4-thiazolidinone analogs): 1.73 ± 1 µM

N#Cc1ccc(C(=O)NN2C(=O)CSC2c2ccccc2O)cc1 (stereo not shown) [D]
IC50 (urease [5]; arylhydrazide Schiff base-thiazolidinones): 4.1 ± 0.02 µM

C=CCNC(=O)CC1SC(=S)N(Cc2ccccc2)C1=O (stereo not shown) [Compound 6g, N-allyl-2-(3-benzyl-4-oxo-2-thioxothiazolidin-5-yl)acetamide]
MIC (C. albicans ATCC 10261): > 512 mg/L
IC50 (urease [1]): 1.61 ± 0.5 µM
viability at 72 h, 100 µM [2]: 91.6 ± 3.7%
IC50 [4]: 61.7 ± 6.41 mg/L (≈ 192 µM)
MIC (E. coli ATCC 25922): > 512 mg/L
MIC [3]: > 512 mg/L
MIC (S. aureus ATCC 25923): > 512 mg/L

CCCCN1C(=O)C(CC(=O)NCC(C)C)SC1=S (stereo not shown) [Compound 6k, 2-(3-butyl-4-oxo-2-thioxothiazolidin-5-yl)-N-isobutylacetamide]
MIC (C. albicans ATCC 10261): > 512 mg/L
IC50 (urease [1]): 1.91 ± 0.57 µM
viability at 72 h, 100 µM [2]: 98.5 ± 1.4%
melting point: 170 to 172 °C
MIC (E. coli ATCC 25922): > 512 mg/L
MIC [3]: > 512 mg/L
MIC (S. aureus ATCC 25923): > 512 mg/L

CCCNC(=O)CC1SC(=S)N(Cc2ccccc2)C1=O (stereo not shown) [Compound 6d, 2-(3-benzyl-4-oxo-2-thioxothiazolidin-5-yl)-N-propylacetamide]
MIC (C. albicans ATCC 10261): > 512 mg/L
IC50 (urease [1]): 1.85 ± 0.66 µM
viability at 72 h, 100 µM [2]: 95.5 ± 3.2%
melting point: 165 to 167 °C
IC50 [4]: 126 ± 8.65 mg/L (≈ 390 µM)
MIC (E. coli ATCC 25922): > 512 mg/L
MIC [3]: > 512 mg/L
MIC (S. aureus ATCC 25923): > 512 mg/L

O=C(CC1SC(=S)N(Cc2ccccc2)C1=O)NCc1ccc(F)cc1 (stereo not shown) [Compound 6c, 2-(3-benzyl-4-oxo-2-thioxothiazolidin-5-yl)-N-(4-fluorobenzyl)acetamide]
MIC (C. albicans ATCC 10261): > 512 mg/L
IC50 (urease [1]): 2.15 ± 0.18 µM
viability at 72 h, 100 µM [2]: 92.7 ± 3.6%
melting point: 169 to 171 °C
MIC (E. coli ATCC 25922): > 512 mg/L
MIC [3]: > 512 mg/L
MIC (S. aureus ATCC 25923): > 512 mg/L

COc1cccc2c1C(=O)c1c(O)c3c(c(O)c1C2=O)C[C@@](O)(C(=O)CO)C[C@@H]3O[C@H]1C[C@H](N)[C@H](O)[C@H](C)O1 [Doxorubicin, reference compound]
IC50 at 72 h ([2]; read-out: IC50 (µM), cytotoxicity): 12.7 ± 2.4 µM

O=C(CC1SC(=S)N(Cc2ccccc2)C1=O)NC1CCCC1 (stereo not shown) [Compound 6h, 2-(3-benzyl-4-oxo-2-thioxothiazolidin-5-yl)-N-cyclopentylacetamide]
MIC (C. albicans ATCC 10261): > 512 mg/L
IC50 (urease [1]): 1.86 ± 0.29 µM
viability at 72 h, 100 µM [2]: 95 ± 4.2%
melting point: 167 to 169 °C
IC50 [4]: ≥ 512 mg/L
inhibition at 512 µg/mL ([4]; at 512 µg/ml): 48.5%
MIC (E. coli ATCC 25922): > 512 mg/L
MIC [3]: > 512 mg/L
MIC (S. aureus ATCC 25923): > 512 mg/L

Cc1ccc(CNC(=O)CC2SC(=S)N(CC(C)C)C2=O)cc1 (stereo not shown) [Compound 6m, 2-(3-isobutyl-4-oxo-2-thioxothiazolidin-5-yl)-N-(4-methylbenzyl)acetamide]
MIC (C. albicans ATCC 10261): > 512 mg/L
IC50 (urease [1]): 3.09 ± 1.08 µM
viability at 72 h, 100 µM [2]: 97.7 ± 2.9%
melting point: 173 to 175 °C
MIC (E. coli ATCC 25922): > 512 mg/L
MIC [3]: > 512 mg/L
MIC (S. aureus ATCC 25923): > 512 mg/L

CCCCN1C(=O)[C@@H](CC(=O)NCc2ccccc2)SC1=S (racemic) [Compound 6i, N-benzyl-2-(3-butyl-4-oxo-2-thioxothiazolidin-5-yl)acetamide]
MIC (C. albicans ATCC 10261): > 512 mg/L
IC50 (urease [1]): 1.47 ± 0.11 µM
viability at 72 h, 100 µM [2]: 97.8 ± 2.5%
Ki (urease [6]): 1.17 µM
type of inhibition (urease [6]; Lineweaver–Burk plot, 6i at 0, 0.5, 1 and 2 µM): competitive
melting point: 172 to 174 °C
IC50 [4]: 17.8 ± 3.75 mg/L (≈ 52.8 µM)
MIC (E. coli ATCC 25922): > 512 mg/L
MIC [3]: > 512 mg/L
MIC (S. aureus ATCC 25923): > 512 mg/L

CCCCNC(=O)CC1SC(=S)N(Cc2ccccc2)C1=O (stereo not shown) [Compound 6e, 2-(3-benzyl-4-oxo-2-thioxothiazolidin-5-yl)-N-butylacetamide]
MIC (C. albicans ATCC 10261): > 512 mg/L
IC50 (urease [1]): 1.64 ± 0.45 µM
viability at 72 h, 100 µM [2]: 91.7 ± 2.8%
melting point: 166 to 168 °C
IC50 [4]: 15.3 ± 2.4 mg/L (≈ 45.4 µM)
MIC (E. coli ATCC 25922): > 512 mg/L
MIC [3]: > 512 mg/L
MIC (S. aureus ATCC 25923): > 512 mg/L

Cc1ccc(CNC(=O)CC2SC(=S)N(Cc3ccccc3)C2=O)cc1 (stereo not shown) [Compound 6b, 2-(3-benzyl-4-oxo-2-thioxothiazolidin-5-yl)-N-(4-methylbenzyl)acetamide]
MIC (C. albicans ATCC 10261): > 512 mg/L
IC50 (urease [1]): 4.02 ± 1.12 µM
viability at 72 h, 100 µM [2]: 91.2 ± 4.2%
melting point: 167 to 169 °C
MIC (E. coli ATCC 25922): > 512 mg/L
MIC [3]: > 512 mg/L
MIC (S. aureus ATCC 25923): > 512 mg/L
